Key:
[1] = test system: MPTP-lesioned macaques; assay: L-DOPA induced dyskinesia (LID) in MPTP-lesioned macaques, monkey dyskinesia rating scale; type: in vivo, Macaca fascicularis; details: for % reduction in LID compared to corresponding vehicle group / Number of LID events in each stated time period (hours) post challenge 0-1 / Number of LID events in each stated time period (hours) post challenge 1-2 / Number of LID events in each stated time period (hours) post challenge 2-3 / Number of LID events in each stated time period (hours) post challenge 3-4 / Number of LID events in each stated time period (hours) post challenge 4-5 / Number of LID events in each stated time period (hours) post challenge 5-6 / Number of LID events post challenge Total: smilagenin 20 mg/kg/day p.o. 18 weeks, then 10 week washout; for Number of LID events in each stated time period (hours) post challenge 0-1: 0-1 h; for Number of LID events in each stated time period (hours) post challenge 1-2: 1-2 h; for Number of LID events in each stated time period (hours) post challenge 2-3: 2-3 h; for Number of LID events in each stated time period (hours) post challenge 3-4: 3-4 h; for Number of LID events in each stated time period (hours) post challenge 4-5: 4-5 h; for Number of LID events in each stated time period (hours) post challenge 5-6: 5-6 h; for Number of LID events post challenge Total: total 0-6 h
Protocol: Ten female cynomolgus monkeys (macaques) (Macaca fascicularis, 3.0-4.5 kg, 4-6 years old) were acclimatised to the experimental setting and procedures for 3 months and baseline behaviour was assessed in all animals. The macaques received MPTP (0.2 mg/kg/day, s.c.) until moderate-marked, stable, parkinsonian symptoms developed.
Following stabilisation of parkinsonian disability, the macaques were administered L-DOPA (Madopar, 20 mg/kg b.i.d., p.o.) for 19 weeks before being administered L-DOPA+vehicle (hydroxypropylmethylcellulose, HPMC, 0.5% w/v containing Tween 80, 0.2% v/v, group 1, n=5) or L-DOPA+smilagenin (20 mg/kg/day, p.o., group 2, n=5) for a further 18 weeks. Smilagenin was then washed out for 10 weeks and all the macaques received only L-DOPA twice daily over this 10 week period.
Following the 10 week washout, the macaques were challenged with L-DOPA (6, 12, 20, 30 or 40 mg/kg, p.o.) or vehicle and the level of dyskinesia over the subsequent 6 h period was assessed by a neurologist blinded to treatment using a monkey dyskinesia rating scale. […] Each macaque received a challenge once every 3 days and received every challenge (vehicle and L-DOPA, 6, 12, 20, 30 or 40 mg/kg) in a randomised order over the course of the experiment. On the days between challenges, the macaques received L-DOPA (20 mg/kg, b.i.d., p.o.) as normal.
The MPTP-lesioned and L-DOPA treated macaques used in this experiment provide an accepted model for L-DOPA-induced dyskinesia.

[2] = test system: MPTP-lesioned macaques; assay: On-time (time without bradykinesia) in MPTP-lesioned macaques after L-DOPA challenge; type: in vivo, Macaca fascicularis; details: for Minutes spent in on time (mean ± s.e. mean): 6 h observation; for Minutes spent in on time (mean ± s.e. mean) / Percent on-time normalised to 0 mg/kg L-DOPA (mean ± s.e. mean): smilagenin 20 mg/kg/day p.o. 18 weeks, then 10 week washout
Protocol: Analysis was performed using a two-way ANOVA with group and L-DOPA dose as factors.

[3] = Total across all L-DOPA challenge doses (0-40 mg/kg)

C[C@@H]1CC[C@@]2(OC1)O[C@H]1C[C@H]3[C@@H]4CC[C@@H]5C[C@@H](O)CC[C@]5(C)[C@H]4CC[C@]3(C)[C@H]1[C@@H]2C [Smilagenin, smilagenin]
% reduction in LID compared to corresponding vehicle group ([1]; Across all doses of L-DOPA): 53%
Number of LID events in each stated time period (hours) post challenge 0-1 ([1]; L-DOPA challenge 0 mg/kg): 0
Number of LID events in each stated time period (hours) post challenge 1-2 ([1]; L-DOPA challenge 0 mg/kg): 0
Number of LID events in each stated time period (hours) post challenge 2-3 ([1]; L-DOPA challenge 0 mg/kg): 0
Number of LID events in each stated time period (hours) post challenge 3-4 ([1]; L-DOPA challenge 0 mg/kg): 0
Number of LID events in each stated time period (hours) post challenge 4-5 ([1]; L-DOPA challenge 0 mg/kg): 0
Number of LID events in each stated time period (hours) post challenge 5-6 ([1]; L-DOPA challenge 0 mg/kg): 0
% reduction in LID compared to corresponding vehicle group ([1]; L-DOPA challenge 0 mg/kg): 0%
Number of LID events post challenge Total ([1]; L-DOPA challenge 0 mg/kg): 0
Number of LID events in each stated time period (hours) post challenge 0-1 ([1]; L-DOPA challenge 6 mg/kg p.o.): 0
Number of LID events in each stated time period (hours) post challenge 1-2 ([1]; L-DOPA challenge 6 mg/kg p.o.): 0
Number of LID events in each stated time period (hours) post challenge 2-3 ([1]; L-DOPA challenge 6 mg/kg p.o.): 0
Number of LID events in each stated time period (hours) post challenge 3-4 ([1]; L-DOPA challenge 6 mg/kg p.o.): 0
Number of LID events in each stated time period (hours) post challenge 4-5 ([1]; L-DOPA challenge 6 mg/kg p.o.): 0
Number of LID events in each stated time period (hours) post challenge 5-6 ([1]; L-DOPA challenge 6 mg/kg p.o.): 0
% reduction in LID compared to corresponding vehicle group ([1]; L-DOPA challenge 6 mg/kg p.o.): 0%
Number of LID events post challenge Total ([1]; L-DOPA challenge 6 mg/kg p.o.): 0
Number of LID events in each stated time period (hours) post challenge 0-1 ([1]; L-DOPA challenge 12 mg/kg p.o.): 0
Number of LID events in each stated time period (hours) post challenge 1-2 ([1]; L-DOPA challenge 12 mg/kg p.o.): 0
Number of LID events in each stated time period (hours) post challenge 2-3 ([1]; L-DOPA challenge 12 mg/kg p.o.): 0
Number of LID events in each stated time period (hours) post challenge 3-4 ([1]; L-DOPA challenge 12 mg/kg p.o.): 0
Number of LID events in each stated time period (hours) post challenge 4-5 ([1]; L-DOPA challenge 12 mg/kg p.o.): 0
Number of LID events in each stated time period (hours) post challenge 5-6 ([1]; L-DOPA challenge 12 mg/kg p.o.): 0
% reduction in LID compared to corresponding vehicle group ([1]; L-DOPA challenge 12 mg/kg p.o.): 100%
Number of LID events post challenge Total ([1]; L-DOPA challenge 12 mg/kg p.o.): 0
Number of LID events in each stated time period (hours) post challenge 0-1 ([1]; L-DOPA challenge 20 mg/kg p.o.): 8
Number of LID events in each stated time period (hours) post challenge 1-2 ([1]; L-DOPA challenge 20 mg/kg p.o.): 29
Number of LID events in each stated time period (hours) post challenge 2-3 ([1]; L-DOPA challenge 20 mg/kg p.o.): 6
Number of LID events in each stated time period (hours) post challenge 3-4 ([1]; L-DOPA challenge 20 mg/kg p.o.): 0
Number of LID events in each stated time period (hours) post challenge 4-5 ([1]; L-DOPA challenge 20 mg/kg p.o.): 0
Number of LID events in each stated time period (hours) post challenge 5-6 ([1]; L-DOPA challenge 20 mg/kg p.o.): 0
% reduction in LID compared to corresponding vehicle group ([1]; L-DOPA challenge 20 mg/kg p.o.): 52%
Number of LID events post challenge Total ([1]; L-DOPA challenge 20 mg/kg p.o.): 43
Number of LID events in each stated time period (hours) post challenge 0-1 ([1]; L-DOPA challenge 30 mg/kg p.o.): 3
Number of LID events in each stated time period (hours) post challenge 1-2 ([1]; L-DOPA challenge 30 mg/kg p.o.): 29
Number of LID events in each stated time period (hours) post challenge 2-3 ([1]; L-DOPA challenge 30 mg/kg p.o.): 11
Number of LID events in each stated time period (hours) post challenge 3-4 ([1]; L-DOPA challenge 30 mg/kg p.o.): 0
Number of LID events in each stated time period (hours) post challenge 4-5 ([1]; L-DOPA challenge 30 mg/kg p.o.): 0
Number of LID events in each stated time period (hours) post challenge 5-6 ([1]; L-DOPA challenge 30 mg/kg p.o.): 0
% reduction in LID compared to corresponding vehicle group ([1]; L-DOPA challenge 30 mg/kg p.o.): 76%
Number of LID events post challenge Total ([1]; L-DOPA challenge 30 mg/kg p.o.): 43
Number of LID events in each stated time period (hours) post challenge 0-1 ([1]; L-DOPA challenge 40 mg/kg p.o.): 8
Number of LID events in each stated time period (hours) post challenge 1-2 ([1]; L-DOPA challenge 40 mg/kg p.o.): 56
Number of LID events in each stated time period (hours) post challenge 2-3 ([1]; L-DOPA challenge 40 mg/kg p.o.): 48
Number of LID events in each stated time period (hours) post challenge 3-4 ([1]; L-DOPA challenge 40 mg/kg p.o.): 14
Number of LID events in each stated time period (hours) post challenge 4-5 ([1]; L-DOPA challenge 40 mg/kg p.o.): 0
Number of LID events in each stated time period (hours) post challenge 5-6 ([1]; L-DOPA challenge 40 mg/kg p.o.): 0
% reduction in LID compared to corresponding vehicle group ([1]; L-DOPA challenge 40 mg/kg p.o.): 27%
Number of LID events post challenge Total ([1]; L-DOPA challenge 40 mg/kg p.o.): 126
Number of LID events in each stated time period (hours) post challenge 0-1 [1, 3]: 19
Number of LID events in each stated time period (hours) post challenge 1-2 [1, 3]: 114
Number of LID events in each stated time period (hours) post challenge 2-3 [1, 3]: 65
Number of LID events in each stated time period (hours) post challenge 3-4 [1, 3]: 14
Number of LID events in each stated time period (hours) post challenge 4-5 [1, 3]: 0
Number of LID events in each stated time period (hours) post challenge 5-6 [1, 3]: 0
Number of LID events post challenge Total [1, 3]: 212
Dyskinesia following challenge with L-DOPA ([1]; group 2 (L-DOPA+smilagenin), challenge with L-DOPA 6 or 12 mg/kg, 6 h): no dyskinesia was observed
Dyskinesia following challenge with L-DOPA, compared to group 1 (vehicle) ([1]; group 2 (L-DOPA+smilagenin), challenge with L-DOPA at 20, 30 or 40 mg/kg): less dyskinesia compared to group 1
Minutes spent in on time (mean ± s.e. mean) ([2]; L-DOPA dose 0 mg/kg): 114 ± 43 min
Percent on-time normalised to 0 mg/kg L-DOPA (mean ± s.e. mean) ([2]; L-DOPA dose 0 mg/kg): 100%
Minutes spent in on time (mean ± s.e. mean) ([2]; L-DOPA dose 6 mg/kg): 134 ± 43 min
Percent on-time normalised to 0 mg/kg L-DOPA (mean ± s.e. mean) ([2]; L-DOPA dose 6 mg/kg): 118 ± 32%
Minutes spent in on time (mean ± s.e. mean) ([2]; L-DOPA dose 12 mg/kg): 126 ± 35 min
Percent on-time normalised to 0 mg/kg L-DOPA (mean ± s.e. mean) ([2]; L-DOPA dose 12 mg/kg): 111 ± 28%
Minutes spent in on time (mean ± s.e. mean) ([2]; L-DOPA dose 20 mg/kg): 178 ± 29 min
Percent on-time normalised to 0 mg/kg L-DOPA (mean ± s.e. mean) ([2]; L-DOPA dose 20 mg/kg): 156 ± 16%
Minutes spent in on time (mean ± s.e. mean) ([2]; L-DOPA dose 30 mg/kg): 224 ± 13 min
Percent on-time normalised to 0 mg/kg L-DOPA (mean ± s.e. mean) ([2]; L-DOPA dose 30 mg/kg): 196 ± 6%
Minutes spent in on time (mean ± s.e. mean) ([2]; L-DOPA dose 40 mg/kg): 230 ± 24 min
Percent on-time normalised to 0 mg/kg L-DOPA (mean ± s.e. mean) ([2]; L-DOPA dose 40 mg/kg): 202 ± 10%
Total on-time, smilagenin group versus vehicle group ([2]; two-way ANOVA with group and L-DOPA dose as factors, p>0.05): not significantly different

Source: US20130210786A1, “TREATMENT OF L-DOPA, DOPAMINE AGONIST AND/OR DOPAMINE ENHANCER INDUCED DISORDERS” (priority 2010, published 2013)
